One compound from article PMC11617484, “A Small Molecule Agonist of Krüppel-Like Factor 15 in Proteinuric Kidney Disease” (Journal of the American Society of Nephrology : JASN, 2024) can be followed below.

This test addresses T1, inhibitor of nuclear factor kappa-B kinase subunit beta (IKKβ) (Homo sapiens, UniProt O14920).
T1 construct: gene IKBKB
T1 sequence (O14920 1-756): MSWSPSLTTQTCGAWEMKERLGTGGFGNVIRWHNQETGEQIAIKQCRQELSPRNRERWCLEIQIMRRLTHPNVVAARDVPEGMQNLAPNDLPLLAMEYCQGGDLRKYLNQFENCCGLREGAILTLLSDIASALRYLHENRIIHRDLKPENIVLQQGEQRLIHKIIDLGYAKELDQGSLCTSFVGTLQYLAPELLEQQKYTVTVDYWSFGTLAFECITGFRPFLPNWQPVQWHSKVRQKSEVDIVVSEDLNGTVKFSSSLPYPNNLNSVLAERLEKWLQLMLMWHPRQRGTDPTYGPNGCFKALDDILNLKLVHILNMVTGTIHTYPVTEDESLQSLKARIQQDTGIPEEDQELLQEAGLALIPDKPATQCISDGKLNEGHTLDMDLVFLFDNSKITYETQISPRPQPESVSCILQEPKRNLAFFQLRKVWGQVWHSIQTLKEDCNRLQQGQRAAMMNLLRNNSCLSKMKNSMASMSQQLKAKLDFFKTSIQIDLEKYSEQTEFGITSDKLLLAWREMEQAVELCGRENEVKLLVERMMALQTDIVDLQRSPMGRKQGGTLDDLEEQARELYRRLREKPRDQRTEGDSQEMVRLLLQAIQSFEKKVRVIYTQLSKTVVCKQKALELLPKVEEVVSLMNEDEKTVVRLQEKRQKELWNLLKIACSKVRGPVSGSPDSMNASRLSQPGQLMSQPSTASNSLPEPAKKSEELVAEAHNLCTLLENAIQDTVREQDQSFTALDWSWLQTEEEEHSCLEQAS
In words: IKKβ kinase activity assay (dose response, ATP dependence, M96V gatekeeper resistance); supported by cellular thermal shift assay in human podocytes. In kind it is biochemical.

pIC50: −log10 of the molar value.

In the case of `CSc1ccc(NC(=O)Nc2ccc(C)nc2)cc1` [BT503], the pIC50 was 6.79.
